Measurements: patent US7105522B2, “HIV inhibiting pyrazinone derivatives” (Janssen Pharmaceutica, N.V., priority 2001, dated 2006)
pIC50: −log10 of the molar value. Where two headings read alike, the source gives them in different places.

Assays:
[1] = Cytotoxicity in mock-infected MT-4 cells (MTT); format: cell-based; details: human, OD 540 nm, read-out: CC50 (50% cytotoxic concentration)
Procedure: (§1) A rapid, sensitive and automated assay procedure was used for the in vitro evaluation of anti-HIV agents. […] Inhibition of the HIV-induced cytopathic effect was used as the end point. The viability of both HIV- and mock-infected cells was assessed spectrophotometrically via the in situ reduction of 3-(4,5-dimethylthiazol-2-yl)-2,5-diphenyltetrazolium bromide (MTT). […] The percent protection achieved by the compound in HIV-infected cells was calculated by the following formula:
(§2) [formula] whereby (ODT)HIV is the optical density measured with a given concentration of the test compound in HIV-infected cells; (ODC)HIV is the optical density measured for the control untreated HIV-infected cells; (ODC)MOCK is the optical density measured for the control untreated mock-infected cells; all optical density values were determined at 540 nm. […] The ratio of CC50 to IC50 was defined as the selectivity index (SI).

[2] = test system: HIV-1; assay: microbe, parasite or virus in culture; format: cell-based; details: for pIC50: HIV-infected MT-4 cells, MTT, OD 540 nm, read-out: IC50 (50% inhibitory concentration, dose achieving 50% protection); for SI (selectivity index, ratio of CC50 to IC50): MT-4 cells
Procedure: A rapid, sensitive and automated assay procedure was used for the in vitro evaluation of anti-HIV agents. An […] T4-cell line, MT-4, which was previously shown (Koyanagi et al., Int. J. Cancer, 36, 445–451, 1985) to be highly susceptible to and permissive for HIV infection, served as the target cell line. Inhibition of the HIV-induced cytopathic effect was used as the end point. The viability of both HIV- and mock-infected cells was assessed spectrophotometrically via the in situ reduction of 3-(4,5-dimethylthiazol-2-yl)-2,5-diphenyltetrazolium bromide (MTT). The 50% cytotoxic concentration (CC50 in μM) was defined as the concentration of compound that reduced the absorbance of the mock-infected control sample by 50%. The percent protection achieved by the compound in HIV-infected cells was calculated by the following formula:
[formula] whereby (ODT)HIV is the optical density measured with a given concentration of the test compound in HIV-infected cells; (ODC)HIV is the optical density measured for the control untreated HIV-infected cells; (ODC)MOCK is the optical density measured for the control untreated mock-infected cells; all optical density values were determined at 540 nm. The dose achieving 50% protection according to the above formula was defined as the 50% inhibitory concentration (IC50 in μM). The ratio of CC50 to IC50 was defined as the selectivity index (SI).

[3] = test system: mock-infected MT-4 cells; assay: Cytotoxicity in mock-infected MT-4 cells (MTT); format: cell-based; details: OD 540 nm, read-out: CC50 (50% cytotoxic concentration)
Procedure: as §1, §2

[4] = Human immunodeficiency virus 1, MT4

Cc1cc(C#N)cc(C)c1Oc1nc(Nc2ccc(C#N)cc2)c(=O)n(C)c1C [Compound 1, 4-[[6-[(4-cyanophenyl)amino]-4,5-dihydro-3,4-dimethyl-5-oxopyrazinyl]oxy]-3,5-dimethyl-benzonitrile]
CC50 [1]: 99.8 µM
pIC50 [2, 4]: 8.20
SI (selectivity index, ratio of CC50 to IC50) [2]: 15849

Cc1ccccc1Oc1cn(C)c(=O)c(Nc2ccc(C#N)cc2)n1 [Compound 2, 4-[[3,4-dihydro-4-methyl-6-(2-methylphenoxy)-3-oxopyrazinyl]amino]-benzonitrile]
CC50 [3]: 100 µM
pIC50 [2]: 8.40

Cc1ccc(Oc2cn(C)c(=O)c(Nc3ccc(C#N)cc3)n2)c(C)c1 [Compound 3, 4-[[6-(2,4-dimethylphenoxy)-3,4-dihydro-4-methyl-3-oxopyrazinyl]amino]-benzonitrile]
CC50 [3]: 95.1 µM
pIC50 [2]: 9.22

Cc1ccccc1Sc1cn(C)c(=O)c(Nc2ccc(C#N)cc2)n1 [Compound 4, 4-[[3,4-dihydro-4-methyl-6-[(2-methylphenyl)thio]-3-oxopyrazinyl]amino]-benzonitrile]
CC50 [1]: 100 µM
pIC50 [2, 4]: 7.70
SI (selectivity index, ratio of CC50 to IC50) [2]: 5012

Cc1ccccc1Oc1nc(Nc2ccc(Cl)cc2)c(=O)n(C)c1C [Compound 6, 3-[(4-chlorophenyl)amino]-1,6-dimethyl-5-(2-methylphenoxy)-2(1H)-pyrazinone]
CC50 [1]: 100 µM
pIC50 [2, 4]: 7.00
SI (selectivity index, ratio of CC50 to IC50) [2]: 1000

Cc1ccc(Oc2cn(C)c(=O)c(Nc3ccccc3)n2)c(C)c1 [Compound 7, 5-(2,4-dimethylphenoxy)-1-methyl-3-(phenylamino)-2(1H)-pyrazinone]
CC50 [1]: 99.9 µM
pIC50 [2, 4]: 6.70
SI (selectivity index, ratio of CC50 to IC50) [2]: 501

Cc1ccc(Sc2nc(Nc3ccc(Cl)cc3)c(=O)n(C)c2C)c(C)c1 [Compound 8, 3-[(4-chlorophenyl)amino]-5-[(2,4-dimethylphenyl)thio]-1,6-dimethyl-2(1H)-pyrazinone]
CC50 [1]: 100 µM
pIC50 [2, 4]: 6.30
SI (selectivity index, ratio of CC50 to IC50) [2]: 200

Cc1ccc(Oc2cn(Cc3ccccc3)c(=O)c(Nc3ccc(C#N)cc3)n2)c(C)c1 [Compound 9, 4-[[6-(2,4-dimethylphenoxy)-3,4-dihydro-3-oxo-4-(phenylmethyl)pyrazinyl]amino]-benzonitrile]
CC50 [1]: 99.9 µM
melting point: 175 °C
pIC50 [2, 4]: 7.50
SI (selectivity index, ratio of CC50 to IC50) [2]: 3162

Cc1ccc(Oc2cn(C)c(=O)c(Nc3ccc(C(F)(F)F)cc3)n2)c(C)c1 [Compound 11, 5-(2,4-dimethylphenoxy)-1-methyl-3-[[4-(trifluoromethyl)phenyl]amino]-2(1H)-pyrazinone]
CC50 [1]: 100 µM
pIC50 [2, 4]: 6.30
SI (selectivity index, ratio of CC50 to IC50) [2]: 200

Cc1cc(C)c(Sc2cn(C)c(=O)c(Nc3ccc(C#N)cc3)n2)c(C)c1 [Compound 13, 4-[[3,4-dihydro-4-methyl-3-oxo-6-[(2,4,6-trimethylphenyl)thio]pyrazinyl]amino]-benzonitrile]
CC50 [3]: 99.7 µM
pIC50 [2]: 7.80

Cc1cc(C)c(Sc2cn(C)c(=O)c(Nc3ccc(Cl)cc3)n2)c(C)c1 [Compound 14, 3-[(4-chlorophenyl)amino]-1-methyl-5-[(2,4,6-trimethylphenyl)thio]-2(1H)-pyrazinone]
CC50 [1]: 99.9 µM
pIC50 [2, 4]: 7.10
SI (selectivity index, ratio of CC50 to IC50) [2]: 1259

Cc1cc(C)c(S(=O)(=O)c2cn(C)c(=O)c(Nc3ccc(C#N)cc3)n2)c(C)c1 [Compound 15, 4-[[3,4-dihydro-4-methyl-3-oxo-6-[(2,4,6-trimethylphenyl)sulfonyl]pyrazinyl]amino]-benzonitrile]
CC50 [3]: 99.4 µM
pIC50 [2]: 8.10

Cc1ccc(S(=O)(=O)c2nc(Nc3ccc(C#N)cc3)c(=O)n(C)c2C)c(C)c1 [Compound 16, 4-[[6-[(2,4-dimethylphenyl)sulfonyl]-3,4-dihydro-4,5-dimethyl-3-oxopyrazinyl]amino]-benzonitrile]
CC50 [1]: 99.9 µM
pIC50 [2, 4]: 7.50
SI (selectivity index, ratio of CC50 to IC50) [2]: 3162

Cc1cc(C)c(S(=O)(=O)c2nc(Nc3ccc(C#N)cc3)c(=O)n(C)c2C)c(C)c1 [Compound 17, 4-[[3,4-dihydro-4,5-dimethyl-3-oxo-6-[(2,4,6-trimethylphenyl)sulfonyl]pyrazinyl]amino]-benzonitrile]
CC50 [1]: 99.8 µM
pIC50 [2, 4]: 8.30
SI (selectivity index, ratio of CC50 to IC50) [2]: 19953

Cc1cc(C)c([S+]([O-])c2nc(Nc3ccc(C#N)cc3)c(=O)n(C)c2C)c(C)c1 (stereo not shown) [Compound 18]
CC50 [1]: 100 µM
pIC50 [2, 4]: 8.40
SI (selectivity index, ratio of CC50 to IC50) [2]: 25119

Cc1ccccc1Oc1nc(Nc2ccc(C#N)cc2)c(=O)n(C)c1C [Compound 19, 4-[[3,4-dihydro-4,5-dimethyl-6-(2-methylphenoxy)-3-oxopyrazinyl]amino]-benzonitrile]
CC50 [1]: 99.8 µM
pIC50 [2, 4]: 8.30
SI (selectivity index, ratio of CC50 to IC50) [2]: 19953

Cc1ccc(Oc2nc(Nc3ccc(C#N)cc3)c(=O)n(C)c2C)c(C)c1 [Compound 20, 4-[[6-(2,4-dimethylphenoxy)-3,4-dihydro-4,5-dimethyl-3-oxopyrazinyl]amino]-benzonitrile]
CC50 [1]: 99.5 µM
pIC50 [2, 4]: 8.60
SI (selectivity index, ratio of CC50 to IC50) [2]: 39811

Cc1ccc(Sc2cn(C)c(=O)c(Nc3ccc(C#N)cc3)n2)c(C)c1 [Compound 21, 4-[[6-[(2,4-dimethylphenyl)thio]-3,4-dihydro-4-methyl-3-oxopyrazinyl]amino]-benzonitrile]
CC50 [3]: 99.8 µM
pIC50 [2]: 8.30

Cc1ccc(Oc2cn(C)c(=O)c(Nc3ccc(Cl)cc3)n2)c(C)c1 [Compound 22, 3-[(4-chlorophenyl)amino]-5-(2,4-dimethylphenoxy)-1-methyl-2(1H)-pyrazinone]
CC50 [1]: 100 µM
pIC50 [2, 4]: 7.70
SI (selectivity index, ratio of CC50 to IC50) [2]: 5012

Cc1ccc(Oc2nc(Nc3ccc(Cl)cc3)c(=O)n(C)c2C)c(C)c1 [Compound 23, 3-[(4-chlorophenyl)amino]-5-(2,4-dimethylphenoxy)-1,6-dimethyl-2(1H)-pyrazinone]
CC50 [1]: 99.9 µM
pIC50 [2, 4]: 7.30
SI (selectivity index, ratio of CC50 to IC50) [2]: 1995

Cc1ccccc1Sc1nc(Nc2ccc(C#N)cc2)c(=O)n(C)c1C [Compound 24, 4-[[3,4-dihydro-4,5-dimethyl-6-[(2-methylphenyl)thio]-3-oxopyrazinyl]amino]-benzonitrile]
CC50 [1]: 99.9 µM
pIC50 [2, 4]: 7.60
SI (selectivity index, ratio of CC50 to IC50) [2]: 3981

Cc1ccccc1Sc1nc(Nc2ccc(C#N)cc2)c(=O)n(Cc2ccccc2)c1C [Compound 27, 4-[[6-[(2-methylphenyl)thio]-5-methyl-3,4-dihydro-3-oxo-4-(phenylmethyl)pyrazinyl]amino]-benzonitrile]
melting point: 195 °C

Cc1ccccc1Sc1nc(Nc2ccc(C#N)cc2)c(=O)[nH]c1C [Compound 28, 4-[[3,4-dihydro-5-methyl-6-[(2-methylphenyl)thio]-3-oxopyrazinyl]amino]-benzonitrile]
melting point: 290 to 291 °C
